Columns and labels:
Format in all cases: tissue-based
[1] = biological target: 5-hydroxytryptamine receptor 2A (Rattus norvegicus, UniProt P14842); test: Compound was evaluated for affinity towards cerebral 5-hydroxytryptamine 2A receptor in homogenate of caudate putamen tissue from rat brain
[2] = biological target: T1, 5-hydroxytryptamine receptor 2C (Rattus norvegicus, UniProt P08909); test: Compound was evaluated for affinity towards cerebral 5-hydroxytryptamine 2C receptor in homogenate of caudate putamen tissue from rat brain
T1 sequence (P08909 whole entry): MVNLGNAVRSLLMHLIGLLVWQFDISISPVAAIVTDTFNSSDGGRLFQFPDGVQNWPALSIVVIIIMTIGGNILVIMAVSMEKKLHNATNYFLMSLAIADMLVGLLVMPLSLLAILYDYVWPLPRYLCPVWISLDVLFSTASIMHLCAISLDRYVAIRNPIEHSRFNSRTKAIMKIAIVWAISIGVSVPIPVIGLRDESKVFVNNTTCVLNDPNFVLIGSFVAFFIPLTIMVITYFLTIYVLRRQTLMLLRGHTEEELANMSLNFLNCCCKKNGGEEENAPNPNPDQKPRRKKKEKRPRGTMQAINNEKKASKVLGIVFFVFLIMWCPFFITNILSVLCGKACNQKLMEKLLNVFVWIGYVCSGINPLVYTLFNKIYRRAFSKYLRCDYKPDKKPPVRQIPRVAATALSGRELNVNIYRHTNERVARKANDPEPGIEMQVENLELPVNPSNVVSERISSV

[3] = biological target: D(1A) dopamine receptor (Rattus norvegicus, UniProt P18901); test: Compound was evaluated for affinity towards dopamine D1-like receptor in homogenate of caudate putamen tissue from rat brain
Sequence of D(1A) dopamine receptor (P18901 whole entry): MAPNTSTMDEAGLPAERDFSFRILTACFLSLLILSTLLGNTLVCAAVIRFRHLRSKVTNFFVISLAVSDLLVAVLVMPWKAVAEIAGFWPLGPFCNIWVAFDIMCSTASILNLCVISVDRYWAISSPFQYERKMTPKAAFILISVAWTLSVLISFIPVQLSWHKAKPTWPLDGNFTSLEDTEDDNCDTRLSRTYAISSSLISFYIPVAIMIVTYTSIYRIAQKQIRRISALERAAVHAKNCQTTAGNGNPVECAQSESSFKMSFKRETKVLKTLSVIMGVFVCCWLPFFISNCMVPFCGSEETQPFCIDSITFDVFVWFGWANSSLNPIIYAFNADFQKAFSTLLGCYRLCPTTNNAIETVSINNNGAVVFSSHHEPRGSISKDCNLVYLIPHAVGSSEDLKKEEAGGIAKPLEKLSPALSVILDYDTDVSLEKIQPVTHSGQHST

Sequence of 5-hydroxytryptamine receptor 2A (P14842 whole entry): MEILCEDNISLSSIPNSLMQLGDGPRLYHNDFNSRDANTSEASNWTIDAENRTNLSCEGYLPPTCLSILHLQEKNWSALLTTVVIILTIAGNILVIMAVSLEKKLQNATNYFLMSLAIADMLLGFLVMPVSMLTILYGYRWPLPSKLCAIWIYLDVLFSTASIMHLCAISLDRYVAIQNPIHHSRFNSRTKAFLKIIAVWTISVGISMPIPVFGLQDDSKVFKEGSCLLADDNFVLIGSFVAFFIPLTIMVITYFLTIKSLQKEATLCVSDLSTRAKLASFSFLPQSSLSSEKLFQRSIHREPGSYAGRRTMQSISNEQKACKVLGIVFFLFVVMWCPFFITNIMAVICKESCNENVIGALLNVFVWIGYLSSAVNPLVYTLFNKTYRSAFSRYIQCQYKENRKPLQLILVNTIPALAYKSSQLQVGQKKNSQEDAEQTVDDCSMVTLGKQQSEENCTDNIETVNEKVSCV

Row | SMILES | Ki [1] [nM] | Ki [2] [nM] | Ki [3] [nM]
1 | CN1CCc2cc(Cl)c(O)cc2C(c2ccccc2Br)C1 (stereo not drawn) | 22.1 | 11.8 | 0.7
2 | CN1CCc2cc(Cl)c(O)cc2C(c2cccc(Br)c2)C1 (stereo not drawn) | 8.5 | 2.08 | 0.26
3 | CN1CCc2cc(Cl)c(O)cc2[C@@H](c2ccccc2)C1 [SCH-23390] | 10.8 | 12.5 | 

Reference: ChEMBL document CHEMBL1132883, “Cyclopentadienyltricarbonylrheniumbenzazepines: synthesis and binding affinity” (Bioorg Med Chem Lett, 2000)
